Test results: patent US20100196355A1, “Immunophilin Ligands and Methods for Modulating Immunophilin and Calcium Channel Activity” (Wyeth, priority 2007, published 2010)

How the values were obtained:
[1] = system: rat cortical neuron cultures; assay: Transcriptional profiling of cortical neuron cultures; format: cell-based; details: 10 μM
Protocol: Cortical neuron cultures were prepared from E16 rat embryos. After plating for 24 hrs, cultures were treated with 10 μM immunophilin ligands and the corresponding vehicle. After treatment for 4 hrs, 12 hrs, 24 hrs and 48 hrs, cells were lysed. Total RNA from each sample was extracted with the RNEASY® Mini Kit (QIAGEN®). Double stranded cDNA was synthesized from 2 μg of each RNA sample using the […]® System (INVITROGEN®), purified, transcribed in vitro to prepare biotinylated cRNA using T7 RNA polymerase in the presence of biotin labeled UTP and CTP. The fragmented cRNAs were hybridized to a Rat Genome 230 2.0 […]® (AFFYMETRIX®, Santa Clara, Calif.) as recommended by the manufacturer. Hybridized arrays were stained according to manufacture protocols on a Fluidics Station 450 and subsequently scanned on an AFFYMETRIX® scanner 3000. The raw data was generated using AFFYMETRIX® MAS 5.0 Software. Transcriptional profiling data were analyzed in Ingenuity.

[2] = target: T1, His6-tagged FKBP52 (Homo sapiens, UniProt Q02790); assay: [3H]-FK506 binding on Ni-chelated FLASH plate
T1 construct: made in house
T1 sequence (Q02790 1-459): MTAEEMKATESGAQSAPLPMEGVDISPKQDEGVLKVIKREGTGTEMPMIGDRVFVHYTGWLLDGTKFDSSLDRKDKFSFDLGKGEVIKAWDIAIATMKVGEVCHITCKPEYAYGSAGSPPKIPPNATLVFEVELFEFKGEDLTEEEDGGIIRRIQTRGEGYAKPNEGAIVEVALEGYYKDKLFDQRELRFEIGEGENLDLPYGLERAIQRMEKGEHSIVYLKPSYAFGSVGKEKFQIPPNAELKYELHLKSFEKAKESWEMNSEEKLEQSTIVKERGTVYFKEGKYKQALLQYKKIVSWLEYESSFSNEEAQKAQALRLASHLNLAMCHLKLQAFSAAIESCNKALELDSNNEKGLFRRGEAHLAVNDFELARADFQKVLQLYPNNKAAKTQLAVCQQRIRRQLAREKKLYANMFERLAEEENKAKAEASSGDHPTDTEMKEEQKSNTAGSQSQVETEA
Protocol: Reactions were carried out in triplicate at 25° C. for 30 min. Kd were calculated using methods described by Carreras (Anal. Biochem. 298, 57-61 (2001)).

With `CO[C@H]1C[C@@H]2CC[C@@H](C)[C@@](O)(O2)C(=O)C(=O)N2CCCCC2C(=O)O[C@H]([C@H](C)C[C@@H]2CC[C@@H](O)[C@H](OC)C2)CC(=O)[C@H](C)/C=C(\C)[C@@H](O)[C@@H](OC)C(=O)[C@H](C)C[C@H](C)C2C=C[C@H](/C=C/1C)ON2c1ccccc1` (stereo partly drawn) [Rapamycin analogue I, 9,27-dihydroxy-3-{2-[4-hydroxy-3-methoxycyclohexyl]-1-methylethyl}-10,21-dimethoxy-6,8,12,14,20,26-hexamethyl-37-phenyl-4,9,10,12,13,14,15,18,21,22,23,24,25,26,27,32,33,34,34a-nonadecahydro-3H-23,27-epoxy-18,15-(epoxyimino)pyrido[2,1-c][1,4]oxazacyclohentriacontine-1,5,11,28,29(6H, 31H)-pentone] as the compound, how does the “fold change vs DMSO, ACTA1” value ([1]; ACTA1) read?
Its value is −1.53 fold.

What about the “fold change vs DMSO, ACTA2” value ([1]; ACTA2) of the same compound?
Its value is 1.41 fold.

And the “fold change vs DMSO, AKAP5” value ([1]; AKAP5)?
Its value is −2.56 fold.

And the “fold change vs DMSO, ASPH” value ([1]; ASPH)?
Its value is −3.19 fold.

What about the “fold change vs DMSO, ATP2A2” value ([1]; ATP2A2) of the same compound?
The value was 1.85 fold.

What about the “fold change vs DMSO, ATP2B1” value ([1]; ATP2B1) of the same compound?
Its value is 1.53 fold.

And the “fold change vs DMSO, ATP2B3” value ([1]; ATP2B3)?
Its value is −1.54 fold.

What about the “fold change vs DMSO, ATP2C1” value ([1]; ATP2C1) of the same compound?
The value was −1.38 fold.

And the “fold change vs DMSO, CABIN1” value ([1]; CABIN1)?
The value was 1.33 fold.

What about the “fold change vs DMSO, CACNA1B” value ([1]; CACNA1B) of the same compound?
Its value is −1.77 fold.

And the “fold change vs DMSO, CACNA1C” value ([1]; CACNA1C)?
The value was 1.48 fold.

And the “fold change vs DMSO, CACNA1D” value ([1]; CACNA1D)?
Its value is −1.72 fold.

And the “fold change vs DMSO, CACNA2D1” value ([1]; CACNA2D1)?
Its value is 3.47 fold.

And the “fold change vs DMSO, CACNB1” value ([1]; CACNB1)?
Its value is −1.32 fold.

What about the “fold change vs DMSO, CACNG2” value ([1]; CACNG2) of the same compound?
Its value is −1.8 fold.

And the “fold change vs DMSO, CACNG3” value ([1]; CACNG3)?
The value was −3.73 fold.

What about the “fold change vs DMSO, CALM1” value ([1]; CALM1) of the same compound?
The value was −1.74 fold.

What about the “fold change vs DMSO, CALM2” value ([1]; CALM2) of the same compound?
The value was −1.22 fold.

What about the “fold change vs DMSO, CALM3” value ([1]; CALM3) of the same compound?
The value was −1.34 fold.

What about the “fold change vs DMSO, CALR” value ([1]; CALR) of the same compound?
Its value is 1.18 fold.

And the “fold change vs DMSO, CAMK1” value ([1]; CAMK1)?
Its value is −1.6 fold.

What about the “fold change vs DMSO, CAMK1G” value ([1]; CAMK1G) of the same compound?
The value was −2.47 fold.

And the “fold change vs DMSO, CAMK2A” value ([1]; CAMK2A)?
The value was −2.03 fold.

And the “fold change vs DMSO, CAMK2B” value ([1]; CAMK2B)?
The value was −1.82 fold.

What about the “fold change vs DMSO, CAMK2D” value ([1]; CAMK2D) of the same compound?
The value was −1.45 fold.

What about the “fold change vs DMSO, CAMK4” value ([1]; CAMK4) of the same compound?
Its value is −1.42 fold.

What about the “fold change vs DMSO, CHP” value ([1]; CHP) of the same compound?
Its value is 1.65 fold.

What about the “fold change vs DMSO, CREBBP” value ([1]; CREBBP) of the same compound?
Its value is 4.14 fold.

And the “fold change vs DMSO, CYP27B1” value ([1]; CYP27B1)?
The value was −1.27 fold.

What about the “fold change vs DMSO, DHCR7” value ([1]; DHCR7) of the same compound?
Its value is 1.84 fold.

What about the “fold change vs DMSO, DSCR1” value ([1]; DSCR1) of the same compound?
The value was −1.93 fold.

What about the “fold change vs DMSO, DSCR1L1” value ([1]; DSCR1L1) of the same compound?
The value was −4.44 fold.

What about the “fold change vs DMSO, EBP” value ([1]; EBP) of the same compound?
The value was 1.45 fold.

What about the “fold change vs DMSO, FDFT1” value ([1]; FDFT1) of the same compound?
Its value is 1.94 fold.

And the “fold change vs DMSO, FDPS” value ([1]; FDPS)?
Its value is 2.34 fold.

What about the “fold change vs DMSO, GRIA1” value ([1]; GRIA1) of the same compound?
The value was −2.78 fold.

And the “fold change vs DMSO, GRIA2” value ([1]; GRIA2)?
Its value is 2.74 fold.

What about the “fold change vs DMSO, GRIN1” value ([1]; GRIN1) of the same compound?
Its value is −2.41 fold.

What about the “fold change vs DMSO, GRIN2B” value ([1]; GRIN2B) of the same compound?
Its value is −1.94 fold.

And the “fold change vs DMSO, GRIN3A” value ([1]; GRIN3A)?
Its value is −1.84 fold.

And the “fold change vs DMSO, GRINA” value ([1]; GRINA)?
The value was −1.21 fold.

And the “fold change vs DMSO, HDAC5” value ([1]; HDAC5)?
The value was 1.78 fold.

And the “fold change vs DMSO, HDAC6” value ([1]; HDAC6)?
The value was −1.18 fold.

And the “fold change vs DMSO, HDAC7A” value ([1]; HDAC7A)?
The value was 1.24 fold.

And the “fold change vs DMSO, HMGCR” value ([1]; HMGCR)?
Its value is 2.24 fold.

What about the “fold change vs DMSO, HTR3A” value ([1]; HTR3A) of the same compound?
Its value is −1.57 fold.

What about the “fold change vs DMSO, IDI1” value ([1]; IDI1) of the same compound?
Its value is 3.24 fold.

And the “fold change vs DMSO, ITPR3” value ([1]; ITPR3)?
Its value is −1.85 fold.

And the “fold change vs DMSO, LSS” value ([1]; LSS)?
Its value is 13.3 fold.

And the “fold change vs DMSO, MAPK1” value ([1]; MAPK1)?
Its value is 1.29 fold.

What about the “fold change vs DMSO, MAPK3” value ([1]; MAPK3) of the same compound?
The value was −1.31 fold.

What about the “fold change vs DMSO, MVD” value ([1]; MVD) of the same compound?
Its value is 1.94 fold.

And the “fold change vs DMSO, MVK” value ([1]; MVK)?
Its value is 1.6 fold.

And the “fold change vs DMSO, MYH1” value ([1]; MYH1)?
The value was −2.18 fold.

What about the “fold change vs DMSO, MYH6” value ([1]; MYH6) of the same compound?
The value was −7.18 fold.

What about the “fold change vs DMSO, MYH7” value ([1]; MYH7) of the same compound?
The value was −6.11 fold.

And the “fold change vs DMSO, MYL6B” value ([1]; MYL6B)?
The value was −1.69 fold.

What about the “fold change vs DMSO, NQO1” value ([1]; NQO1) of the same compound?
The value was 1.8 fold.

And the “fold change vs DMSO, PMVK” value ([1]; PMVK)?
Its value is 1.33 fold.

What about the “fold change vs DMSO, PPP3CB” value ([1]; PPP3CB) of the same compound?
Its value is −1.3 fold.

What about the “fold change vs DMSO, PPP3CC” value ([1]; PPP3CC) of the same compound?
The value was −1.18 fold.

What about the “fold change vs DMSO, PPP3R1” value ([1]; PPP3R1) of the same compound?
The value was −1.49 fold.

What about the “fold change vs DMSO, PRKAG1” value ([1]; PRKAG1) of the same compound?
Its value is −1.21 fold.

What about the “fold change vs DMSO, PRKAR1A” value ([1]; PRKAR1A) of the same compound?
The value was 1.08 fold.

And the “fold change vs DMSO, PRKAR1B” value ([1]; PRKAR1B)?
Its value is −3.36 fold.

And the “fold change vs DMSO, PRKAR2A” value ([1]; PRKAR2A)?
Its value is −1.56 fold.

And the “fold change vs DMSO, PRKAR2B” value ([1]; PRKAR2B)?
The value was −1.56 fold.

And the “fold change vs DMSO, RAP1B” value ([1]; RAP1B)?
Its value is −1.29 fold.

And the “fold change vs DMSO, SC5DL” value ([1]; SC5DL)?
The value was 2.01 fold.

What about the “fold change vs DMSO, SQLE” value ([1]; SQLE) of the same compound?
Its value is 1.92 fold.

What about the “fold change vs DMSO, TPM1” value ([1]; TPM1) of the same compound?
Its value is −2.55 fold.

And the “fold change vs DMSO, TPM3” value ([1]; TPM3)?
Its value is −2.04 fold.

And the “fold change vs DMSO, TRPC1” value ([1]; TRPC1)?
Its value is −1.21 fold.

What about the “fold change vs DMSO, TRPC3” value ([1]; TRPC3) of the same compound?
The value was −2.4 fold.

And the “fold change vs DMSO, TRPC4” value ([1]; TRPC4)?
The value was −4.56 fold.

What about the “fold change vs DMSO, TRPV6” value ([1]; TRPV6) of the same compound?
The value was 1.65 fold.

And the “fold change, PLAU” value ([1]; plasminogen activator (PLAU))?
The value was −40 fold.

And the Kd [2]?
Its Kd is 550 ± 50 pM.
